Experiments:
HL-60(TB) = assay: NCI 60 cell line screen, HL-60(TB); format: cell-based, human; details: Leukemia
Experimental: (§1) The activity of Compound 8C was tested against 60 different human tumor cell lines at the National Cancer Institute, using the standard NCI 60 screening protocol.

HT29 = assay: NCI 60 cell line screen, HT29; format: cell-based, human; details: Colon Cancer
Experimental: as §1

UACC-257 = assay: NCI 60 cell line screen, UACC-257; format: cell-based, human; details: Melanoma
Experimental: as §1

SK-MEL-28 = assay: NCI 60 cell line screen, SK-MEL-28; format: cell-based, human; details: Melanoma
Experimental: as §1

RKO cells = assay: Clonogenic IC50, RKO; format: cell-based; details: Homo sapiens
UM1 cells = assay: Clonogenic IC50, UM1; format: cell-based
HCC-2998 = assay: NCI 60 cell line screen, HCC-2998; format: cell-based, human; details: Colon Cancer
Experimental: as §1

MCR5 cells = assay: Clonogenic IC50, MCR5; format: cell-based; details: MCR5, MCR5
Experimental: (§2) It was determined if the response to Compound 8C correlates with inhibition of EGF-induced dimerization and degradation of EGFR. For this, PC9-AZR cells were treated for 1 hour with 1 μM Compound 8C and an additional 30 minutes with EGF (30 ng/ml) and 30 minutes with disuccinimidyl suberate (DSS, 150 μM) to cross-link interacting proteins. Lysates were prepared and immunoblotted with anti-EGFR antibodies.
The viability of cells upon treatment was assessed by CellTiter-Blue® reagent following the manufacturer's protocol in RKO, UM10B, UM1, MCR5, and UMCC92 cells. Briefly, 10,000 cells were plated in 96-well plate in quadruplets. One day after seeding, cells were treated with a range of concentrations (0.1 to 30 micromolar). 3-days post-treatment, cells were incubated with the CellTiter-Blue® reagent for 4 hr. Only the viable cells convert the redox dye (reszurin) into a fluorescent product (resofurin). The emission of fluorescence (excitation 560 nm) was measured at […]. The IC50 value was calculated as the mean concentration of compounds required to inhibit cell proliferation as measured by the fluorescence at […] by 50 percent compared to the vehicle-treated controls.

purified EGFR = target: T1, purified EGFR (Homo sapiens, UniProt P00533); assay: Competition with Biotin-Disruptin for purified EGFR; format: binding; details: 15 minutes at 37° C.
T1 construct: WT-EGFR kinase domain (aa696-1022, active kinase); made in house; host or cells: SF9 insect cells
T1 sequence (P00533 696-1022): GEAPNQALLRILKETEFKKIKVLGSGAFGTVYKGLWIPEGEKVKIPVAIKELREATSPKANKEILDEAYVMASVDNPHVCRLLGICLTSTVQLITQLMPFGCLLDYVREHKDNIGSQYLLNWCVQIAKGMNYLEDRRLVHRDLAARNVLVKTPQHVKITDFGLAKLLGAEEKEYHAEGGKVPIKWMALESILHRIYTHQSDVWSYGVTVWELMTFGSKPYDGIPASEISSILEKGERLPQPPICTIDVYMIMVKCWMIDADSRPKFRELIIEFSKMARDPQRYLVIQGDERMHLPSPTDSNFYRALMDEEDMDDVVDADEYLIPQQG
Experimental: To determine if Compound 8C competes for the same binding site on EGFR, Biotin-Disruptin-Avidin coupled beads were incubated with purified EGFR in the presence or absence of Compound 8C for 15 minutes at 37° C. The agarose beads were spun down, and the non-specific protein removed by washing in citrate buffer. The bound protein was released in Laemmli buffer and resolved by SDS page.

[1] = test system: Ba/F3-AZR cells (L858R+T790M+C797S-EGFR); assay: Osimertinib resistant Ba/F3-AZR ascites tumor model; format: in vivo, nude mice; details: single 30 mg/kg dose (Compound 8C i.p., osimertinib oral), 18 days after tumor cells
M14 = assay: NCI 60 cell line screen, M14; format: cell-based, human; details: Melanoma
Experimental: as §1

MALME-3M = assay: NCI 60 cell line screen, MALME-3M; format: cell-based, human; details: Melanoma
Experimental: as §1

MDA-MB-468 = assay: NCI 60 cell line screen, MDA-MB-468; format: cell-based, human; details: Breast Cancer
Experimental: as §1

[2] = Stability in mouse liver microsomes; format: in vitro ADME
PC9-AZR = assay: Clonogenic survival assay, PC9-AZR; format: cell-based; details: read-out: IC50 and IC90
[3] = test system: PanIn (Pancreatic Intraepithelial Neoplasia); assay: Pancreatic tumor model (KC mice), PanIn; format: in vivo; details: oral gavage, 30 mg/kg body weight, daily
Experimental: 6-week old KC mice were treated with Compound 8C via oral gavage (30 mg/kg body weight, daily).

cells = assay: Clonogenic cellular assay; format: cell-based
786-0 = assay: NCI 60 cell line screen, 786-0; format: cell-based, human; details: Renal Cancer
Experimental: as §1

[4] = target: T2, purified wild-type EGFR kinase domain (Homo sapiens, UniProt P00533); assay: Thermal stability assay of purified EGFR; format: binding; details: 10 μM
T2 construct: WT-EGFR kinase domain (aa696-1022, active kinase); made in house; host or cells: SF9 insect cells
T2 sequence (P00533 696-1022): as above
Experimental: The samples were subjected to heat inactivation (20 to 44° C.) for 3 minutes. The soluble fraction was separated from aggregate by centrifugation at 13,000 RPM at 4° C. for 10 minutes. […] The EGFR band intensity as quantified by ImageJ software and plotted (see FIG. 5B). […] The soluble fraction of EGFR was quantified and plotted as described above (see FIG. 5C).
After cooling, the samples were centrifuged, and the soluble protein fraction was collected and resolved using immunoblotting with anti-EGFR antibodies (see FIG. 6A).

UMCC92 cells = assay: Clonogenic IC50, UMCC92; format: cell-based
[5] = Stability in human liver microsomes; format: in vitro ADME
LOX IMVI = assay: NCI 60 cell line screen, LOX IMVI; format: cell-based, human; details: Melanoma
Experimental: as §1

EGFR = assay: EGF-induced EGFR dimerization and EGFR degradation in PC9-AZR cells; format: cell-based; details: 1 μM, 1 hour, then EGF 30 ng/ml
Experimental: as §2

Microsomal half-life = format: in vitro ADME; details: microsomes
SK-MEL-5 = assay: NCI 60 cell line screen, SK-MEL-5; format: cell-based, human; details: Melanoma
Experimental: as §1

MDA-MB-231/ATCC = assay: NCI 60 cell line screen, MDA-MB-231/ATCC; format: cell-based, human; details: Breast Cancer
Experimental: as §1

COLO 205 = assay: NCI 60 cell line screen, COLO 205; format: cell-based, human; details: Colon Cancer
Experimental: as §1

HCC827-AZR = assay: Clonogenic survival assay, HCC827-AZR; format: cell-based; details: read-out: IC50 and IC90
MCF7 = assay: NCI 60 cell line screen, MCF7; format: cell-based, human; details: Breast Cancer
Experimental: as §1

UMSCC74B = UMSCC74B xenografts, oral gavage twice weekly; format: in vivo, mouse; details: 30 mg/kg, vs untreated and cetuximab controls
Experimental: Mouse xenographs of UMSCC74B, a head and neck tumor cell line, were treated with Compound 8C via oral gavage (30 mg/kg body weight, twice weekly).

K-562 = assay: NCI 60 cell line screen, K-562; format: cell-based, human; details: Leukemia
Experimental: as §1

Preliminary safety test = format: in vivo, C57BL6 mice; details: daily dose of 30 mg/kg for one week
Experimental: A preliminary test on the safety of a daily dose of 30 mg/kg for one week was performed using C57BL6 mice. The overall health and weight of a group of 6 mice was monitored during treatment. A modest loss of 3.5±2.4% body weight after one week of treatment was observed, but mice fully recovered the weight 2-days after treatment cessation.

SMILES: CN1CCC2(CC1)N=C(SCC(=O)Nc1cnc3ccccc3c1)C(c1ccc(Br)cc1)=N2 [Compound 8C, 2-((3-(4-bromophenyl)-8-methyl-1,4,8-triazaspiro[4.5]deca-1,3-dien-2-yl)thio)-N-(quinolin-3-yl)acetamide]
- Percent Growth (HL-60(TB)): −40.7%
- Percent Growth (HT29): −67.1%
- Percent Growth (UACC-257): −61.2%
- Percent Growth (SK-MEL-28): −70.1%
- IC50 (RKO cells): 1.6 µM
- IC50 (UM1 cells): 0.5 µM
- Percent Growth (HCC-2998): −51.3%
- IC50 (MCR5 cells): 18.6 µM
- inhibition of Disruptin-EGFR binding (purified EGFR): Competitive inhibition
- survival [1]: prolonged life
- Percent Growth (M14): −83.8%
- Percent Growth (MALME-3M): −75.5%
- Percent Growth (MDA-MB-468): −43.8%
- stability compared to pre lead (C95) [2]: approximately 20 times
- IC50 (PC9-AZR): 1.5 to 4 µM
- propensity for developing PanIn [3]: significantly reduced propensity
- IC50 in the clonogenic cellular assay (cells): sub-micromolar
- Percent Growth (786-0): −81.7%
- effect on melting curve / melting temperature of purified WT-EGFR [4]: shifts the melting curve
- IC50 (UMCC92 cells): 0.2 µM
- stability compared to pre lead (C95) [5]: approximately 20 times
- Percent Growth (LOX IMVI): −78.5%
- EGFR dimerization and degradation of EGFR (EGFR): can inhibit EGFR dimerization and induce degradation of EGFR
- half-life (Microsomal half-life): > 46 min
- Percent Growth (SK-MEL-5): −96.2%
- Percent Growth (MDA-MB-231/ATCC): −40.5%
- Percent Growth (COLO 205): −76.2%
- IC50 (HCC827-AZR): 1.5 to 4 µM
- Percent Growth (MCF7): −42.7%
- tumor volume (UMSCC74B): significantly reduced tumor volume
- Percent Growth (K-562): −61.5%
- loss of body weight after one week of treatment (Preliminary safety test): 3.5±2.4%
- time to full weight recovery after treatment cessation (Preliminary safety test): 2 days
